# Laboratory results published in patent US12410192B2, “Compound for inhibiting and inducing degradation of EGFR kinase” (BEIJING TIDE PHARMACEUTICAL CO., LTD., priority 2019, dated 2025).
# Like-named read-outs stand apart in the source and are kept apart here.
# Assays:
# EGFR^L858R/T790M/C797S [1] = target: T1, EGFR^L858R/T790M/C797S (Homo sapiens (Human), UniProt P00533, C797S/L858R/T790M); experiment: Assay of inhibitory activity on EGFR (HTRF kinase assay); assay type: biochemical; details: mutant EGFR kinase
# Description: Formula of inhibition rate (%): […]
# The nonlinear regression curve (dose response-variable slope) between the value of inhibition rate (%) and the logarithm of compound concentration was fitted with graphpad prism 8.0, the effect dose curve of compound was drawn, and IC50 value was calculated.
# [2] = tested on: Ba/F3 (EGFR^L858R/T790M/C797S) cells; experiment: Assay of activity on Ba/F3 (EGFR^L858R/T790M/C797S) cells (CTG, 72 h); assay type: cell-based
# Description: (§1) 30 nL of the compound dilution was added to a 384-well plate by Echo (Labcyte, Echo550). […] 2. Data Analysis
# (§2) The percent inhibition rate (% inhibition) was calculated by the following formula
# (§3) [formula] • LUMcmpd: Luminescence value of assay compound. • LUMpositive: Average LUM value of positive drug (Brigatinib) with a concentration of 10 μM. • LUMvehicle: Average LUM value of negative control group without drug treatment.
# (§4) The nonlinear regression curve (dose response-variable slope) between the value of inhibition rate (%) and the logarithm of compound concentration was fitted with graphpad prism 8.0, the effect dose curve of compound was drawn, and the IC50 value was calculated. Y=Bottom+(Top−Bottom)/(1+10^((LogIC50−X)*HillSlope)) • X-axis: logarithm of compound concentration; Y axis: inhibition rate (% inhibition). 3.
# [3] = tested on: Ba/F3 (EGFR^Del19/T790M/C797S) cells; experiment: Assay of activity on Ba/F3 (EGFR^Del19/T790M/C797S) cells (CTG, 72 h); assay type: cell-based
# Description: as §1, §2, §3, §4
# EGFR^L858R/T790M/C797S [4] = target: T1, EGFR^L858R/T790M/C797S; experiment: Assay of activity of compounds for inducing EGFR^L858R/T790M/C797S protein degradation; assay type: cell-based; details: Ba/F3 (EGFR^L858R/T790M/C797S) cells
# Description: In order to further explain the reason why the compounds of the present disclosure have inhibitory activity on Ba/F3 (EGFR^L858R/T790M/C797S) cells, representative compounds D3 was selected to study the mechanism of action of the compounds, and observe their effects on EGFR^L858R/T790M/C797S protein levels.
# • Ba/F3 (EGFR^L858R/T790M/C797S) cells were cultured according to the culture conditions recommended by ATCC, and analyzed by index. • Complete medium: 1640 medium, 10% FBS, 1× glutamine, 1× penicillin-streptomycin. • Culture conditions: incubated at 37° C., 95% air, 5% CO2 incubator. (2) Compound Stock Solution:
# 10 mM stock solution in DMSO, stored at −20° C.
# • The cells in the cell culture bottle were collected, and the cells with viability of >90% can be used in the assay. Cells were seeded in a 96-well plate with 40 μL cells, 1*10^5 cells/well. […] (6) Detection: • 1) 1 μg/mL of EGF activated cells were treated for 10 min; • 2) After the compound treatment, lysis buffer was added to lyse cells; 10 μL of cell lysate was transferred to a 384-well plate; in addition, 5 μL of acceptor mix was added to the 384-well plate, and shaken on a shaker for 1-2 min; • 3) 5 μL of donor mix was added to each well; the 384-well plate was sealed, shaken on a shaker for 1-2 min, left in the dark at room temperature overnight, and read with an enzyme labeling instrument. […]
molecule,measurement,setting,value
"Cc1cc2cc(n1)-c1cnn(C)c1OCCC[C@@H](C)CN1/C(=N/C2=O)Nc2ccc(CN3CCN(CCCCCc4cccc5c4CN(C4CCC(=O)NC4=O)C5=O)CC3)cc21 (stereo partly drawn) [Compound D3, 3-(1-oxo-4-(5-(4-(((R,E)-1^1,2^6,7-trimethyl-3-oxo-5^2,5^3-dihydro-1^1H,5^1H-11-oxa-4-aza-5 (2,1)-benzo[d]imidazole-2 (2,4)-pyridine-1 (4,5)-pyrazolecyclododecan-5^6-yl)methyl)piperazin-1-yl)pentyl)isoindol-2-yl)piperidine-2,6-dione]",IC50,EGFR^L858R/T790M/C797S [1],1.09 nM
same,IC50,"[2]; Mus musculus, BaF3",2.88 nM
same,IC50,[3]; Ba/F3 EGFR-Del19/T790M/C797S,3.13 nM
same,effect on EGFR^L858R/T790M/C797S protein level (in words),"EGFR^L858R/T790M/C797S [4]; 6 h, dose-dependent",significantly reduces
same,DC50,"EGFR^L858R/T790M/C797S [4]; 6 h treatment, 0.01 nM to 1000 nM, read-out: DC50 (EGFR^L858R/T790M/C797S protein level)",9.28 nM
"C=CC(=O)Nc1cc(Nc2nccc(-c3cn(C)c4ccccc34)n2)c(OC)cc1N(C)CCN(C)C [Osimertinib, reference compound]",IC50,"[2]; Mus musculus, BaF3",> 1000 nM
same,IC50,[3]; Ba/F3 EGFR-Del19/T790M/C797S,> 1000 nM
"Cc1cc2cc(n1)-c1cnn(C)c1OCCC[C@@H](C)CN1/C(=N/C2=O)Cc2ccc(CN3CCN(CCCCCCc4cccc5c4CN(C4CCC(=O)NC4=O)C5=O)CC3)cc21 (stereo partly drawn) [Compound D4, 3-(1-oxo-4-(6-(4-(((R,E)-1^1,2^6,7-trimethyl-3-oxo-5^2,5^3-dihydro-1^1H,5^1H-11-oxa-4-aza-5 (2,1)-benzo[d]imidazole-2 (2,4)-pyridine-1 (4,5)-pyrazolecyclododecan-5^6-yl)methyl)piperazin-1-yl)hexyl)isoindol-2-yl)piperidine-2,6-dione]",IC50,EGFR^L858R/T790M/C797S [1],10.1 nM
same,IC50,[2],4.39 nM
same,IC50,[3],4.41 nM
"3-(1-oxo-4-(5-(4-(((R,E)-1^1,2^6,7-trimethyl-3-oxo-5^2,5^3-dihydro-1^1H,5^1H-11-oxa-4-aza-5 (2,1)-benzo[d]imidazole-2 (2,4)-pyridine-1 (4,5)-pyrazolecyclododecan-5^6-yl)methyl)piperazin-1-yl) pent-1-yn-1-yl)isoindol-2-yl)piperidine-2,6-dione [Compound D2]",IC50,[2],3.96 nM
same,IC50,[3],3.89 nM
"3-(1-oxo-4-(4-(4-(((R,E)-1^1,2^6,7-trimethyl-3-oxo-5^2,5^3-dihydro-1^1H,5^1H-11-oxa-4-aza-5 (2,1)-benzo[d]imidazole-2 (2,4)-pyridine-1 (4,5)-pyrazolecyclododecan-5^6-yl)methyl)piperazin-1-yl)butyl)isoindol-2-yl)piperidine-2,6-dione [Compound D1]",IC50,[2],2.12 nM
same,IC50,[3],2.7 nM
"Cc1cc2cc(n1)-c1cnn(C)c1OCCC[C@@H](C)CN1/C(=N/C2=O)Nc2ccc(CN3CCN(CCCCCCCc4cccc5c4CN(C4CCC(=O)NC4=O)C5=O)CC3)cc21 (stereo partly drawn) [Compound D5, 3-(1-oxo-4-(7-(4-(((R,E)-1^1,2^6,7-trimethyl-3-oxo-5^2,5^3-dihydro-1^1H,5^1H-11-oxa-4-aza-5 (2,1)-benzo[d]imidazole-2 (2,4)-pyridine-1 (4,5)-pyrazolecyclododecan-5^6-yl)methyl)piperazin-1-yl)heptyl)isoindol-2-yl)piperidine-2,6-dione]",IC50,EGFR^L858R/T790M/C797S [1],35.9 nM
same,IC50,"[2]; Mus musculus, BaF3",11.6 nM
same,IC50,[3]; Ba/F3 EGFR-Del19/T790M/C797S,10.7 nM
